Data from patent EP0219616A1, “N,N'-dimethyl-N,N'-4,10-dioxa-3,11-dioxo-1,13-tridecylene-bis-tetrahydropapaverinium dichloride” (S O "PHARMACHIM", priority 1985, dated 1987).
Where two headings read alike, the source gives them in different places.

Experiments:
[1] = pH 2,5; literature reference (4); cited from earlier work
[2] = Comparative stability in aqueous acidic medium, content by HPLC; type: physicochemical
Experimental: […] Die Prüfung wurde bei unterschiedlichen pH-Werten in dem angegebenen Intervall durch Behandlung der wässrigen Lösungen des Dichlormethylats der Formel I und des Bezylats bei einer Temperatur von 53°C während 40 Stunden durchgeführt.
Chromatografische Bedingungen: Säule mit umgekehrter Phase C18, bewegliche Phase: wässrige 0,1 M Kaliumhydrogenphosphat, enthaltend Natriumoktylhydrogensulfat (1 g/I) und Azetonitril in einem Verhältnis 1:1. Durchlaßgeschwindigkeit 1,5 ml/Min.
Es werden je 7 Proben einer 0,5%-igen wässrigen Lösung des Dichlorids I und des Dibezylats mit bestimmten pH-Werten zubereitet, was durch Zufügen von Ortophospharsäure ereicht wird. Die Proben verweilen 40 Stunden bei einer Temperatur von 53°C. Danach wird der Prozentgehalt an Dichlorid und Dibezylat in den Proben gemessen.

Neuromuskel-Übertragung = assay: Sciatic nerve-gastrocnemius preparation in cats: muscle contraction on nerve stimulation (neuromuscular block); type: in vivo, Katzen; settings: for Eintreten der Neuro-muskel-Blockierung / Wiederherstellung der Neuromuskel-Übertragung: dose 0,2 mg/kg
Source text: Die Versuche wurden an Katzen unter Einführen von gleichen Dosen des Originalpräparats "Tracrium" und der Verbindung der Formel I. Es wurde das klassische Verfahren "I-schiadiensgastrocnemicus" benutzt. Es wurde eine Kontraktion des Muskels Gastrocnemicus zufolge einer Reizung des Hüftnervs (Ischiasnervs) registriert. Die Ergebnisse sind in Tabelle II dargestellt.

[3] = Solubility compared with known salts (no method given); type: physicochemical

In the case of `COc1ccc(CC2c3cc(OC)c(OC)cc3CC[N+]2(C)CCC(=O)OCCCCCOC(=O)CC[N+]2(C)CCc3cc(OC)c(OC)cc3C2Cc2ccc(OC)c(OC)c2)cc1OC` (stereo not shown) [Dibezylat, Dibesylat des N,N-4,10-Dioxa-3,11-Dioxotridezylen-1,13-bis-tetrahydropapaverins, reference compound], the “Prozentgehalt des Bezylats bei maximaler Stabilität” value [1] is listed as 76%, the remaining at 40 h ([2]; acidic aqueous solution, pH 3, at pH 3,50, 53°C, read-out: Prozentgehalt, Maximum) is listed as 73.8% and the remaining at 40 h ([2]; aqueous solution, phosphoric acid, pH 1, pH 1,76, 0,5% aqueous solution, 53°C, read-out: Prozent-gehalt) is listed as 60.6%. For the same molecule, the remaining at 40 h ([2]; aqueous solution, phosphoric acid, pH 2, pH 2,88, 0,5% aqueous solution, 53°C, read-out: Prozent-gehalt) was 72.9%, the remaining at 40 h ([2]; aqueous solution, phosphoric acid, pH 3, pH 3,16, 0,5% aqueous solution, 53°C, read-out: Prozent-gehalt) was 73.5% and the remaining at 40 h ([2]; aqueous solution, phosphoric acid, pH 3, pH 3,50, 0,5% aqueous solution, 53°C, read-out: Prozent-gehalt) was 73.8%. For the same molecule, the remaining at 40 h ([2]; aqueous solution, phosphoric acid, pH 3, pH 3,71, 0,5% aqueous solution, 53°C, read-out: Prozent-gehalt) was 72.2%, the remaining at 40 h ([2]; aqueous solution, phosphoric acid, pH 4, pH 4,09, 0,5% aqueous solution, 53°C, read-out: Prozent-gehalt) was 68.8% and the “Prozentgehalt niedriger im Vergleich zur Verbindung der Formel I” value ([2]; pH interval 2,46 bis 3,77, 53°C, 40 h) was ~20%.

For `COc1ccc(CC2c3cc(OC)c(OC)cc3CC[N+]2(C)CCC(=O)OCCCCCOC(=O)CC[N+]2(C)CCc3cc(OC)c(OC)cc3C2Cc2ccc(OC)c(OC)c2)cc1OC` (stereo not shown) [Dichlormethylat der Formel I, N,N-Dimethyl-N,N-4,10-dioxa-3,11-dioxotridezylen-1,13-tetrachydropapaverinoil-dichlorid], the “Eintreten der Neuro-muskel-Blockierung” value (Neuromuskel-Übertragung; cats) was 60,3 Sek, the “Wiederherstellung der Neuromuskel-Übertragung” value (Neuromuskel-Übertragung; cats) was 29,8 Min and the “Eintreten, Wiederherstellung und Dauer des Effekts der Neuromuskelübertragung im Vergleich zu "Tracrium"” value (Neuromuskel-Übertragung; cats, equal doses) was “keinen statistisch wesentlichen Unterschied”. For the same molecule, the “biologischer Effekt bei den pharmakologischen Prüfungen” value (Neuromuskel-Übertragung; same effect with smaller quantity of active substance) was “verbesserten biologischen Effekt”, the “Löslichkeit im Vergleich zu dem bekannten Dijodid und den anderen Salzen derselben Gruppe” value [3] was “bessere Löslichkeit” and the remaining at 40 h ([2]; acidic aqueous solution, pH 3, at pH 3,0 -3,27, 53°C, read-out: Prozentgehalt, Maximum) was 91.9%. The remaining at 40 h ([2]; acidic aqueous solution, pH interval 2,46 bis 3,77, 53°C, read-out: Prozentgehalt) was 86 to 91.9%, the “Stabilität im Vergleich zum Bezylat” value ([2]; aqueous acidic medium, pH 1,7 bis 4,0, 53°C, 40 h) was “wesentlich stabiler” and the remaining at 40 h ([2]; aqueous solution, phosphoric acid, pH 2, pH 2,46, 0,5% aqueous solution, 53°C, read-out: Prozent-gehalt) was 88.1%. It also gave a remaining at 40 h ([2]; aqueous solution, phosphoric acid, pH 2, pH 2,75, 0,5% aqueous solution, 53°C, read-out: Prozent-gehalt) of 89.5%, a remaining at 40 h ([2]; aqueous solution, phosphoric acid, pH 3, pH 3,04, 0,5% aqueous solution, 53°C, read-out: Prozent-gehalt) of 91.9% and a remaining at 40 h ([2]; aqueous solution, phosphoric acid, pH 3, pH 3,27, 0,5% aqueous solution, 53°C, read-out: Prozent-gehalt) of 91.4%. The remaining at 40 h ([2]; aqueous solution, phosphoric acid, pH 3, pH 3,58, 0,5% aqueous solution, 53°C, read-out: Prozent-gehalt) was 87.6% and the Prozent-gehalt ([2]; pH 4,09, 0,5% aqueous solution, 53°C, 40 h, listed as Dichlor-methyl der Formel I, 2400 min) was 70,4%.

In the case of `COc1ccc(CC2c3cc(OC)c(OC)cc3CC[N+]2(C)CCC(=O)OCCCCCOC(=O)CC[N+]2(C)CCc3cc(OC)c(OC)cc3C2Cc2ccc(OC)c(OC)c2)cc1OC` (stereo not shown) [Tracrium, Dibesylat des N,N-4,10-Dioxa-3,11-Dioxotridezylen-1,13-bis-tetrahydropapaverins, reference compound], the “Eintreten der Neuro-muskel-Blockierung” value (Neuromuskel-Übertragung; cats) is reported as 60,4 Sek and the “Wiederherstellung der Neuromuskel-Übertragung” value (Neuromuskel-Übertragung; cats) is reported as 34,6 Min.
